Laboratory results as given in patent publication US7723091B2 (priority 1999, dated 2010).
Like-named read-outs stand apart in the source and are kept apart here. Marks after values point to notes of the source that are not given here.

Legend:
[1] = system: E. acervulina, E. maxima and Clostridium perfringens; format: in vivo, broiler chickens; details: Trial IV; infected; PI-PLC 30 U/lb, Man. 121 MU/ton, BMD 50 g/ton, salinomycin 60 g/ton
[2] = system: C. parvum; assay: Anti-cryptosporidial activity in MDCK cell cultures (chemiluminescence immunoassay); format: cell-based, Cryptosporidium parvum
Procedure: The enzyme PI-PLC was evaluated for anti-cryptosporidial activity and toxicity at concentrations ranging from 0.001-30 U/ml were performed using 4-day-old Madin-Darby canine kidney (MDCK) cells. Enzyme units were defined as by the method in Example 4 but measured as in Example 9. The preparation of enzyme used was from recombinant Bacillus megaterium. Treatment was initiated 3 hours after infection and continued through 48 hours.
Chemiluminescence Immunoassay. Before infection, oocysts were washed and resuspended in DMEM base with 0.75% sodium taurocholate and incubated for 10 min at 37° C. (You et al., FEMS Microbiol. Letters 136:251-256, 1996; You et al., J. Antimicrobial. Chemother. 41:293-296, 1998). The excystation mixture was diluted with Ultraculture medium, promptly dispensed in plates containing MDCK cells, at 100% confluence, and maintained in Ultraculture medium for 4 days. The inoculum was incubated with the cells for3 h before washing with PBS and replaced with fresh Ultraculture medium with or without test enzyme. Plates were incubated at 37° C., in a 5% CO2 air atmosphere for 48 h. Cultures were washed with PBS and fixed with Bouin's solution.
The fixed plates were washed with TBST buffer (20 mM Tris-HCl (pH 7.5), 150 mM NaCl, 0.05% Tween-20) and blocked with 1% BSA-TBST (TBST buffer containing 1% bovine serum albumin) for 30 min at 25° C. with gentle shaking. Rabbit anti-Cryptosporidium parvum sera (1:200 dilution) was applied to the plates and incubated for 1 hr. After washing with TBST, the samples were sequentially incubated with biotin-labeled goat anti-rabbit IgG and horseradish peroxidase-labeled streptavidin (working dilution, 1:1000, KPL Inc., Gaithersburg, Md.). Enhanced Luminol (4-iodophenol and hydrogen peroxide, Aldrich Chemical Co. Inc., Milwaukee, Wis.) was used as a substrate. The plates were read with an ML3000 Luminometer (Dynatech Lab., Chantilly, Va.) and the relative light units (RLU) were determined. Means of RLU were calculated from 4 replicate wells and all experiments were repeated at least twice.
A second set of experiments were performed to evaluate enzyme specificity. Sporozoites were treated with the enzyme at various concentrations for 45 min and briefly washed. The treated sporozoites were then allowed to infect untreated host cells and develop and reproduce for 48 hours. In a separate experiment, host cells were incubated with the enzyme at various concentrations, washed and infected with untreated sporozoites. As shown below (Table 14), treatment of either sporozoite or host cells with the enzyme results in partial inhibition. A dose dependent inhibition was not observed in this concentration range. This may be due to the short incubation period of the enzyme with host or parasite cells (45 min) or partial or incomplete cleavage of host/parasite receptors. Additionally, other host/parasite receptors are probably involved in infection and account for the growth observed in the host cells.

[3] = system: Eimeria acervulina sporozoites; assay: In vitro invasion of BHK cells by Eimeria acervulina sporozoites; format: cell-based
Procedure: Eineria acervulina sporozoites or Eimeria tenella sporozoites and cultured baby hamster kidney (BHK) cells were prepared by published methods. See Augustine, Avian and Poultry Biology Reviews 1:113-122, 2000. For cell pretreatment, cell cultures were overlaid with dilutions of enzymes as described in Table 11, and examined for morphological changes from 5 to 45 min post overlay. After 45 minutes, the monolayer cultures were washed twice, then inoculated with untreated E. acervulina or E. tenella sporozoites. For application during infection, sporozoites were suspended in the appropriate dilution of the enzyme and inoculated immediately into the cell cultures. After 45 minutes incubation, cultures were fixed, stained, and the invasion was quantified.
Observations were made looking for changes in gross morphology of sporozoites or cells due to enzyme treatment. At the enzyme levels used in these experiments, no morphological change was noted. The sporozoite invasion of the cultured cells was measured after the two methods of enzyme treatment, as well as without enzyme treatment, by histological staining and microscopy procedures. See Augustine, supra.

[4] = system: E. acervulina and Clostridium perfringens; format: in vivo, broiler chickens
[5] = Host cells treated before infection (washed), 0.01 Unit/ml
[6] = Host cells treated before infection (washed), 0.03 Unit/ml
[7] = Host cells treated before infection (washed), 0.1 Unit/ml
[8] = Host cells treated before infection (washed), 0.3 Unit/ml
[9] = Host cells treated before infection (washed), 1 Unit/ml
[10] = Sporozoite treated before infection (45 min, washed), 0.01 Unit/ml
[11] = Sporozoite treated before infection (45 min, washed), 0.03 Unit/ml
[12] = Sporozoite treated before infection (45 min, washed), 0.1 Unit/ml
[13] = Sporozoite treated before infection (45 min, washed), 0.3 Unit/ml
[14] = Sporozoite treated before infection (45 min, washed), 1 Unit/ml
[15] = enzyme added 3 h post infection, 48 h, 0.01 Unit/mL
[16] = enzyme added 3 h post infection, 48 h, 0.03 Unit/mL
[17] = enzyme added 3 h post infection, 48 h, 0.1 Unit/mL
[18] = enzyme added 3 h post infection, 48 h, 0.3 Unit/mL
[19] = enzyme added 3 h post infection, 48 h, 1 Unit/mL
[20] = Trial II T4 (Rec), T7 (Wt), infected, 10 U/lb
[21] = Trial II T9, no infection challenge, 90 U/lb

phosphatidylinositol specific phospholipase C [Recombinant PI-PLC]
Feed Conversion Day 0-21 [1]: 1.701
Feed Conversion Day 8-21 [1]: 1.778
Lesion Score E. acer. Upper [1]: 2.25
Lesion Score E. max. Middle [1]: 1.50
Live Weight Day 21 [1]: 0.486
Weight Gain Day 0-21 [1]: 0.451
Weight Gain Day 8-21 [1]: 0.347
Mean Number of Cryptosporidium per microtiter plate well [2, 5]: 543.85
Percent Inhibition [2, 5]: 56.84%
Mean Number of Cryptosporidium per microtiter plate well [2, 6]: 522.66
Percent Inhibition [2, 6]: 58.53%
Mean Number of Cryptosporidium per microtiter plate well [2, 7]: 455.88
Percent Inhibition [2, 7]: 63.82%
Mean Number of Cryptosporidium per microtiter plate well [2, 8]: 629.24
Percent Inhibition [2, 8]: 50.07%
Mean Number of Cryptosporidium per microtiter plate well [2, 9]: 393.64
Percent Inhibition [2, 9]: 68.76%
Mean Number of Cryptosporidium per microtiter plate well [2, 10]: 542.15
Percent Inhibition [2, 10]: 56.98%
Mean Number of Cryptosporidium per microtiter plate well [2, 11]: 527.59
Percent Inhibition [2, 11]: 58.13%
Mean Number of Cryptosporidium per microtiter plate well [2, 12]: 536.80
Percent Inhibition [2, 12]: 57.40%
Mean Number of Cryptosporidium per microtiter plate well [2, 13]: 433.04
Percent Inhibition [2, 13]: 65.64%
Mean Number of Cryptosporidium per microtiter plate well [2, 14]: 412.40
Percent Inhibition [2, 14]: 67.27%
inhibition ([2]; at a concentration of 0.1 U/mL (FIG. 1), enzyme added 3 h after infection for 48 hours): Approximately 50%
concentration range with anti-cryptosporidial activity in vitro ([2]; enzyme added 3 h after infection for 48 hours): 0.01-1 U/mL
Mean Number of Cryptosporidium per microtiter plate well [2, 15]: 1167.78
Percent Inhibition [2, 15]: 7.33%
Mean Number of Cryptosporidium per microtiter plate well [2, 16]: 912.15
Percent Inhibition [2, 16]: 27.62%
Mean Number of Cryptosporidium per microtiter plate well [2, 17]: 595.53
Percent Inhibition [2, 17]: 52.74%
Mean Number of Cryptosporidium per microtiter plate well [2, 18]: 286.5
Percent Inhibition [2, 18]: 77.26%
Mean Number of Cryptosporidium per microtiter plate well [2, 19]: 285.28
Percent Inhibition [2, 19]: 77.36%
Invasion counts (mean ± standard error of the mean) ([3]; Application of Enzyme During Infection, Test 1, B. cereus PI-PLC 0.0403 U/mL, recombinant 0.261 U/mL, listed as PI-PLC from Recombinant B. megateriaum): 16 ± 2^c
Invasion counts (mean ± standard error of the mean) ([3]; Application of Enzyme During Infection, Test 1, recombinant PI-PLC 0.0261 U/mL): 36 ± 3^b
Invasion counts (mean ± standard error of the mean) ([3]; Application of Enzyme During Infection, Test 2, B. cereus PI-PLC 0.0403 U/mL, recombinant 0.261 U/mL, listed as PI-PLC from Recombinant B. megateriaum): 18 ± 1^bc
Invasion counts (mean ± standard error of the mean) ([3]; Application of Enzyme During Infection, Test 2, recombinant PI-PLC 0.0261 U/mL): 9 ± 2^c
Invasion counts (mean ± standard error of the mean) ([3]; Cell Pretreatment with Enzyme Followed by Wash, Test 1, B. cereus PI-PLC 0.0403 U/mL, recombinant 0.261 U/mL, mannanase 5100 U/mL, listed as PI-PLC from Recombinant B. megateriaum): 14 ± 1^b
Invasion counts (mean ± standard error of the mean) ([3]; Cell Pretreatment with Enzyme Followed by Wash, Test 1, recombinant PI-PLC 0.0261 U/mL): 18 ± 1^ab
Invasion counts (mean ± standard error of the mean) ([3]; Cell Pretreatment with Enzyme Followed by Wash, Test 2, B. cereus PI-PLC 0.0403 U/mL, recombinant 0.261 U/mL, mannanase 5100 U/mL, listed as PI-PLC from Recombinant B. megateriaum): 22 ± 1^b
Invasion counts (mean ± standard error of the mean) ([3]; Cell Pretreatment with Enzyme Followed by Wash, Test 2, recombinant PI-PLC 0.0261 U/mL): 26 ± 1^ab
8-21 Day Feed Conversion (Corrected) ([4]; Trial II T3, infected, 3 U/lb): 1.702
8-21 Day Weight Gain ([4]; Trial II T3, infected, 3 U/lb): 323.24
Average Intestinal Lesion Score ([4]; Trial II T3, infected, 3 U/lb): 1.120
8-21 Day Feed Conversion (Corrected) [4, 20]: 1.732
8-21 Day Weight Gain [4, 20]: 324.78
Average Intestinal Lesion Score [4, 20]: 1.133
8-21 Day Feed Conversion (Corrected) ([4]; Trial II T5, infected, 30 U/lb): 1.699
8-21 Day Weight Gain ([4]; Trial II T5, infected, 30 U/lb): 320.64
Average Intestinal Lesion Score ([4]; Trial II T5, infected, 30 U/lb): 0.842
8-21 Day Feed Conversion (Corrected) ([4]; Trial II T6, infected, 90 U/lb): 1.739
8-21 Day Weight Gain ([4]; Trial II T6, infected, 90 U/lb): 328.29
Average Intestinal Lesion Score ([4]; Trial II T6, infected, 90 U/lb): 0.808
8-21 Day Feed Conversion (Corrected) [4, 21]: 1.650
8-21 Day Weight Gain [4, 21]: 338.8
Average Intestinal Lesion Score [4, 21]: 0.847
effect of varying concentrations on intestinal lesion score, feed conversion and weight gain ([4]; Trial II, T3-T6 (3-90 U/lb)): dose-dependent effect on lowering the intestinal lesion score and feed conversion (T3-T6) and increasing weight gain
